Measurements from PMC9415646, “Improving Aqueous Solubility and In Vitro Pharmacokinetic Properties of the 3-Nitroimidazo[1,2-a]pyridine Antileishmanial Pharmacophore” (Pharmaceuticals, 2022).
Values joined by “and” are separate entries in the source; they are usually repeats but may differ in a detail not shown here. Identical values can stand only once. Like-named read-outs stand apart in the source and are kept apart here.

Assays:
[1] = tested on: T. b. brucei BSF trypomastigotes; assay: Antitrypanosomal evaluation on T. b. brucei BSF trypomastigotes (Alamar Blue); format: cell-based; details: Trypanosoma brucei, trypomastigote blood stream form
Method: The effects of the tested compounds on the growth of T. b. brucei were assessed by Alamar Blue® assay described by Räz et al. T. b. brucei AnTat 1.9 (IMTA, Antwerpen, Belgium) was cultured in MEM with Earle’s salts, supplemented according to the protocol of Baltz et al. with the following modifications: 0.5 mM mercaptoethanol (Sigma Aldrich®, France), 1.5 mM L-cysteine (Sigma Aldrich®), 0.05 mM bathocuproïne sulfate (Sigma Aldrich®) and 20% heat-inactivated horse serum (Gibco®, France), at 37 °C and 5% CO2. They were incubated at an average density of 2000 parasites/100 µL in sterile 96-wells plates (Fisher®, France) with various concentrations of compounds dissolved in DMSO, in duplicate. Appropriate controls suramin, treated with sterile water, and fexinidazole, treated with DMSO on sterile water (reference drugs purchased from Sigma Aldrich, France and Fluorochem, UK) were added to each set of experiments. After a 69 h incubation period at 37 °C, 10 µL of the viability marker Alamar Blue® (Fisher, France) were then added to each well, and the plates were incubated for 5 h. The plates were read in a ENSPIRE microplate reader (PerkinElmer, Waltham, MA, USA) using an excitation wavelength of 530 nm and an emission wavelength of 590 nm. […] EC50 were calculated by nonlinear regression analysis processed on dose-response curves, using GraphPad Prism software (USA). EC50 values were calculated from three separate experiments.

[2] = Parallel artificial membrane permeability assay (PAMPA); format: in vitro ADME; details: for Papp at 4 h, 100 µM: PAMPA, pH 7.4, read-out: PAMPA GIT at pH 7.4 Pe
[3] = molecular target: T1, Albumin from human plasma (Homo sapiens, UniProt P02768); assay: Plasma protein (albumin) binding; format: in vitro ADME
T1 construct: from tissue; host or cells: plasma
T1 sequence (P02768 25-609): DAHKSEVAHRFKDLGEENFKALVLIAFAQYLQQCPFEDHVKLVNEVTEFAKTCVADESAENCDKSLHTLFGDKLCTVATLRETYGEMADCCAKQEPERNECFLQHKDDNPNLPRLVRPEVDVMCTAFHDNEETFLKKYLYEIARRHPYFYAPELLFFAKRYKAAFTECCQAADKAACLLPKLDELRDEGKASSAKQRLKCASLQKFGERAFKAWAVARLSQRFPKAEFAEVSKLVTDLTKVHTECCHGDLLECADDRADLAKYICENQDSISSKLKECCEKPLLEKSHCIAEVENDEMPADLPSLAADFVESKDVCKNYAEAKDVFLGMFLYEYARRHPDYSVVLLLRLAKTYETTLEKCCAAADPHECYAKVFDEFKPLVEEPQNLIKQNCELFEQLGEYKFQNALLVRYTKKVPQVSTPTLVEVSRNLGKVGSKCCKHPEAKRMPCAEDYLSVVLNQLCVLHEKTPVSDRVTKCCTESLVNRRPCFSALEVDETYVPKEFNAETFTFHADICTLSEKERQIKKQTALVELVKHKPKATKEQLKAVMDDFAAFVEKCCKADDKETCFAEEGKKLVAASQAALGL
Method: Plasma doped with the tested compound was incubated at 37 °C in triplicate in one of the compartments of the insert, the other compartment containing a phosphate buffer solution at pH 7.2. After stirring for 4 h at 300 rpm, a 25 μL aliquot of each compartment was taken and diluted; the dilution solution was adapted so as to obtain an identical matrix for all the compartments after dilution. Parallel, reprocessing of a plasma doped but not incubated was used to assess recovery. The LC-MS used for this study was a Waters® Acquity I-Class/Xevo TQD, equipped with a Waters® Acquity BEH C18 column, 50 × 2.1 mm, […]. The mobile phases were (A) ammonium acetate 10 mM and (B) acetonitrile with 0.1% formic acid. The injection volume was 1 µL and the flow rate 600 µL/min. Chromatographic analysis, total duration of 4 min, was performed along the following gradient: 0 < t < 0.2 min, 2% (B); 0.2 < t < 2 min, linear increase to 98% (B); 2 < t < 2.5 min, 98% (B); 2.5 < t < 2.6 min, linear decrease to 2% (B); 2.6 < t < 4 min, 2% (B). Carbamazepine, oxazepam, warfarin and diclofenac were used as reference drugs and propranolol as internal standard. The unbound fraction (fu) was calculated according to the following formula: fu=APlasma, 4h−APBS,4h/APlasma, 4h×100 . The percentage of recovery was calculated according to the following formula: % Recovery=(VPBS×APBS,4h)+(VPlasma×APlasma,4h)/(VPlasma×APlasma,0h) where A is the ratio of the area under peak of the studied molecule and the area under peak of the internal standard (propranolol 200 nM). V is the volume of solution present in the compartments (VPBS = 350 µL and Vplasma = 200 µL).

HepG2 cell line = tested on: HepG2 cell line; parameters: method as in PMID 24080103, PMID 30655943; details: previously identified hit compounds; cited from earlier work
THP1 cell line = tested on: THP1 cell line; parameters: method as in PMID 24080103, PMID 30655943; details: previously identified hit compounds; cited from earlier work
[4] = tested on: L. infantum axenic amastigotes; parameters: method as in PMID 24080103, PMID 30655943; details: previously identified hit compounds; cited from earlier work
[5] = tested on: T. b. brucei BSF trypomastigotes; parameters: method as in PMID 30655943; details: previously evaluated hit compounds; cited from earlier work

SMILES: O=[N+]([O-])c1c(CS(=O)(=O)c2ccc(F)cc2)nc2c(Sc3ccc(Cl)cc3)cc(Cl)cn12 [Compound 3c, 6-Chloro-8-[(4-Chlorophenyl)thio]-2-[(4-Fluorophenylsulfonyl)methyl]-3-Nitroimidazo[1,2-a]pyridine]
- EC50 [1]: 0.57 ± 0.02 µM

SMILES: O=[N+]([O-])c1c(CS(=O)(=O)c2ccc(C(F)(F)F)cc2)nc2c(Sc3ccc(Cl)cc3)cc(Cl)cn12 [Compound 3d, 6-Chloro-8-[(4-Chlorophenyl)thio]-3-Nitro-2-[(4-Trifluoromethylphenylsulfonyl)methyl]imidazo[1,2-a]pyridine]
- EC50 [1]: 0.89 ± 0.07 µM

SMILES: O=[N+]([O-])c1c(CS(=O)(=O)CCC(F)(F)F)nc2c(Sc3ccc(Cl)cc3)cc(Cl)cn12 [Compound 3i, 6-Chloro-8-[(4-Chlorophenyl)thio]-3-Nitro-2-[(3,3,3-Trifluoropropylsulfonyl)methyl]imidazo[1,2-a]pyridine]
- PAMPA GIT at pH 7.4 Pe [2]: 6.3 nm/s
- Papp at 4 h, 100 µM [2]: 0.63 ± 0.08 ×10⁻⁶ cm/s
- Albumin Binding [3]: 99.8% and 99.76%

SMILES: O=[N+]([O-])c1c(CS(=O)(=O)CCC(F)(F)F)nc2c(-c3ccncc3)cc(Cl)cn12 [Compound 7, 6-Chloro-3-Nitro-8-(Pyridin-4-yl)-2-[(3,3,3-Trifluoropropylsulfonyl)methyl]imidazo[1,2-a]pyridine]
- Papp at 4 h, 100 µM [2]: 31.4 ± 8.72 ×10⁻⁶ cm/s
- Albumin Binding [3]: 88.6% and 88.65%

SMILES: O=[N+]([O-])c1c(CS(=O)(=O)c2ccccc2)nc2c(Br)cc(Cl)cn12 [Hit A, 8-Bromo-6-chloro-3-nitro-2-(phenylsulfonylmethyl)imidazo[1,2-a]pyridine, reference compound]
- CC50 (HepG2 cell line): > 15.6 µM
- PAMPA GIT at pH 7.4 Pe [2]: 173.2 nm/s
- Papp at 4 h, 100 µM [2]: 17.3 ± 3.88 ×10⁻⁶ cm/s
- CC50 (THP1 cell line): > 100 µM
- Albumin Binding [3]: 96.50%
- EC50 [4]: 16.4 ± 1.3 µM
- EC50 [5]: 1.4 ± 0.4 µM

SMILES: CSc1ccc(OCc2ncc([N+](=O)[O-])n2C)cc1 [Fexinidazole, reference compound]
- EC50 [1]: 1.4 ± 0.5 µM

SMILES: O=[N+]([O-])c1c(CS(=O)(=O)c2ccc(O)cc2)nc2c(Sc3ccc(Cl)cc3)cc(Cl)cn12 [Compound 3a, 4-{[(6-Chloro-8-[(4-Chlorophenyl)thio]-3-Nitroimidazo[1,2-a]pyridin-2-yl)methyl]sulfonyl}phenol]
- EC50 [1]: 0.78 ± 0.05 µM

SMILES: O=[N+]([O-])c1c(CS(=O)(=O)c2ccccc2)nc2c(Sc3ccc(Cl)cc3)cc(Cl)cn12 [Hit B, reference compound]
- CC50 (HepG2 cell line): > 100 µM
- PAMPA GIT at pH 7.4 Pe [2]: 4.0 nm/s
- Papp at 4 h, 100 µM [2]: 0.4 ± 0.06 ×10⁻⁶ cm/s
- CC50 (THP1 cell line): > 62.5 µM
- Albumin Binding [3]: 99.95%
- EC50 [4]: 1.7 ± 0.3 µM
- EC50 [5]: 0.95 ± 0.05 µM
